According to ChEMBL document CHEMBL2434948, “Discovery, synthesis, and characterization of an orally bioavailable, brain penetrant inhibitor of mixed lineage kinase 3” (J Med Chem, 2013):
pIC50: −log10 of the molar value. Each block holds one molecule with its values, some of them ahead of it. Calls of active or inactive are those of the source. No cut-off for these calls is given here.

How the values were obtained:
[1] = molecular target: Receptor-type tyrosine-protein kinase FLT3 (Homo sapiens) (UniProt P36888); assay: Inhibition of wild type human FLT3 at 1 umol by high throughput ATP-[33P] radiolabeled assay relative to control
[2] = molecular target: Mitogen-activated protein kinase kinase kinase 11 (Mus musculus, UniProt Q80XI6)
[3] = molecular target: T1, Mitogen-activated protein kinase kinase kinase 11 (Homo sapiens, UniProt Q16584)
[4] = molecular target: T2, Leucine-rich repeat serine/threonine-protein kinase 2 (Homo sapiens, UniProt Q5S007)
Cytochrome P450 3A4 = Cytochrome P450 3A4 (Homo sapiens, UniProt P08684)
Cytochrome P450 2C9 = Cytochrome P450 2C9 (Homo sapiens, UniProt P11712)
Cytochrome P450 2D6 = Cytochrome P450 2D6 (Homo sapiens, UniProt P10635)
[5] = molecular target: T3, Tyrosine-protein kinase ABL1 (Homo sapiens, UniProt P00519); assay: Inhibition of human wild type ABL1 at 1 uM by qPCR analysis relative to control
[6] = molecular target: T3, Tyrosine-protein kinase ABL1; assay: Inhibition of human ABL1 mutant at 1 uM by qPCR analysis
[7] = molecular target: TRAF2 and NCK-interacting protein kinase (Homo sapiens) (UniProt Q9UKE5); assay: Binding affinity to human wild type TNIK at 1 uM by qPCR analysis
[8] = molecular target: Ribosomal protein S6 kinase alpha-6 (Homo sapiens) (UniProt Q9UK32); assay: Inhibition of human wild type RSK4 at 1 uM by qPCR analysis
[9] = molecular target: Mitogen-activated protein kinase kinase kinase kinase 4 (Homo sapiens) (UniProt O95819); assay: Binding affinity to human wild type MAP4K4 at 1 uM by qPCR analysis
[10] = molecular target: Ribosomal protein S6 kinase alpha-1 (Homo sapiens) (UniProt Q15418); assay: Inhibition of human wild type RSK1 at 1 uM by qPCR analysis
[11] = molecular target: 5'-AMP-activated protein kinase catalytic subunit alpha-2 (Homo sapiens) (UniProt P54646); assay: Inhibition of human wild type AMPKalpha2 at 1 uM by qPCR analysis relative to control
[12] = molecular target: Calcium/calmodulin-dependent protein kinase type II subunit delta (Homo sapiens) (UniProt Q13557); assay: Inhibition of human wild type CAMK2D at 1 uM by qPCR analysis relative to control
[13] = molecular target: Serine/threonine-protein kinase BRSK2 (Homo sapiens) (UniProt Q8IWQ3); assay: Inhibition of human wild type BRSK2 at 1 uM by qPCR analysis relative to control
[14] = molecular target: Calcium/calmodulin-dependent protein kinase type II subunit alpha (Homo sapiens) (UniProt Q9UQM7); assay: Inhibition of human wild type CAMK2A at 1 uM by qPCR analysis relative to control
[15] = molecular target: Aurora kinase C (Homo sapiens) (UniProt Q9UQB9); assay: Inhibition of human wild type Aurora kinase C at 1 uM by qPCR analysis relative to control
[16] = molecular target: Aurora kinase A (Homo sapiens) (UniProt O14965); assay: Inhibition of human wild type Aurora kinase A at 1 uM by qPCR analysis relative to control
[17] = molecular target: T4, Mitogen-activated protein kinase kinase kinase 9 (Homo sapiens, UniProt P80192); assay: Inhibition of human wild type MLK1 at 1 uM by qPCR analysis relative to control
[18] = molecular target: Calcium/calmodulin-dependent protein kinase type 1D (Homo sapiens) (UniProt Q8IU85); assay: Inhibition of human wild type CAMK1D at 1 uM by qPCR analysis relative to control
[19] = test system: Leucine-rich repeat serine/threonine-protein kinase 2 (Homo sapiens), Q5S007 [G2019S]; assay: Inhibition of human LRRK2 G2019S mutant at 1 uM by qPCR analysis relative to control
[20] = molecular target: T2, Leucine-rich repeat serine/threonine-protein kinase 2; assay: Inhibition of human wild type LRRK2 at 1 uM by qPCR analysis relative to control
[21] = molecular target: Mast/stem cell growth factor receptor Kit (Homo sapiens) (UniProt P10721); assay: Inhibition of human wild type KIT at 1 uM by qPCR analysis relative to control
[22] = molecular target: Receptor-type tyrosine-protein kinase FLT3 (Homo sapiens) (UniProt P36888); assay: Inhibition of human wild type FLT3 at 1 uM by qPCR analysis relative to control
[23] = molecular target: T4, Mitogen-activated protein kinase kinase kinase 9
[24] = molecular target: Mitogen-activated protein kinase kinase kinase 10 (Homo sapiens, UniProt Q02779)
[25] = molecular target: T1, Mitogen-activated protein kinase kinase kinase 11; remark: listed apart in the source
[26] = molecular target: T5, Receptor-type tyrosine-protein kinase FLT3 (Homo sapiens, UniProt P36888)
T5 sequence (P36888 whole entry): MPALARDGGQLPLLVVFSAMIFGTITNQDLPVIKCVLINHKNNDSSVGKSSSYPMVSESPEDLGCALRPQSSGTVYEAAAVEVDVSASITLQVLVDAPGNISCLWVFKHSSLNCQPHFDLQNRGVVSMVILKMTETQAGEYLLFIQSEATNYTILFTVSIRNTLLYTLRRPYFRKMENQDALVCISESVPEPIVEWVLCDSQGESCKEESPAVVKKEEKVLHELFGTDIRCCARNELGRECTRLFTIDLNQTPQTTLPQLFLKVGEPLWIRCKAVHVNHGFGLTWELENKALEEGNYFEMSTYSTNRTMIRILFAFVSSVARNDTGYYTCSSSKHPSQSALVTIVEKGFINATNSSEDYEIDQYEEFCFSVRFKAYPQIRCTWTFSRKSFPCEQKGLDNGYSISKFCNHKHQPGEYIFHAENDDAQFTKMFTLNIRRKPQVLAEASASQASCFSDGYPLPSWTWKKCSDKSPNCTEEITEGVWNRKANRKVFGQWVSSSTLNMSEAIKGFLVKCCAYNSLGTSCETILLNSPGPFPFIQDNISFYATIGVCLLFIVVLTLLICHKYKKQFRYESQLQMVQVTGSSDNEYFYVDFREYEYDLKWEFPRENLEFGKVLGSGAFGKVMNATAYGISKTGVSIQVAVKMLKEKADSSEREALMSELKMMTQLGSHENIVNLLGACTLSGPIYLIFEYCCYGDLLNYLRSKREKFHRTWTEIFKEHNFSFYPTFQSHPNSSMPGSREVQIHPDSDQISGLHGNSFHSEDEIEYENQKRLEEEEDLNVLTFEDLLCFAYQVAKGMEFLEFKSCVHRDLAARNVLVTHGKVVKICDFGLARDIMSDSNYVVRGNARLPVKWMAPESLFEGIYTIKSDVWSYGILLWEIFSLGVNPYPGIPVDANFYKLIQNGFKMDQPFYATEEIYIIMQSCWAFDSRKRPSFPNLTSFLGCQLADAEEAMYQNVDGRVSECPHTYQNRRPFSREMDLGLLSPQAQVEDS

[27] = molecular target: Inhibitor of nuclear factor kappa-B kinase subunit alpha (Homo sapiens, UniProt O15111)
[28] = molecular target: Inhibitor of nuclear factor kappa-B kinase subunit beta (Homo sapiens, UniProt O14920)
[29] = molecular target: Tyrosine-protein kinase ABL1 (Homo sapiens, UniProt P00519, T315I)
Insulin receptor = Insulin receptor (Homo sapiens, UniProt P06213)
[30] = molecular target: Cyclin-dependent kinase 2 (Homo sapiens, UniProt P24941)
[31] = molecular target: T5, Receptor-type tyrosine-protein kinase FLT3; assay: cell-based

Cytochrome P450 2C9, sequence (P11712 whole entry): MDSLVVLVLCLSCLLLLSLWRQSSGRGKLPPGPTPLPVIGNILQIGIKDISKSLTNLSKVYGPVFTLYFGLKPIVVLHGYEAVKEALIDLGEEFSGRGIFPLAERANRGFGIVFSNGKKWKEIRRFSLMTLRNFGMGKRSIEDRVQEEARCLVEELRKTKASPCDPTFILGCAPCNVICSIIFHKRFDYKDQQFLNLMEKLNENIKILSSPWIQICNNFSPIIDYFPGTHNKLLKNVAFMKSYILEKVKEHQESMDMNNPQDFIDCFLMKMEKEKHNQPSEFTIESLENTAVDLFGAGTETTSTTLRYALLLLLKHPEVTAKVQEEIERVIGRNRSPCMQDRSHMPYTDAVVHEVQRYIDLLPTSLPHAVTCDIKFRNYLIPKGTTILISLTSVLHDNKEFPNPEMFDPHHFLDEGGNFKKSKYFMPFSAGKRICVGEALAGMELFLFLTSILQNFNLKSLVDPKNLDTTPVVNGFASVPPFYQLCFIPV
Cytochrome P450 2D6, sequence (P10635 whole entry): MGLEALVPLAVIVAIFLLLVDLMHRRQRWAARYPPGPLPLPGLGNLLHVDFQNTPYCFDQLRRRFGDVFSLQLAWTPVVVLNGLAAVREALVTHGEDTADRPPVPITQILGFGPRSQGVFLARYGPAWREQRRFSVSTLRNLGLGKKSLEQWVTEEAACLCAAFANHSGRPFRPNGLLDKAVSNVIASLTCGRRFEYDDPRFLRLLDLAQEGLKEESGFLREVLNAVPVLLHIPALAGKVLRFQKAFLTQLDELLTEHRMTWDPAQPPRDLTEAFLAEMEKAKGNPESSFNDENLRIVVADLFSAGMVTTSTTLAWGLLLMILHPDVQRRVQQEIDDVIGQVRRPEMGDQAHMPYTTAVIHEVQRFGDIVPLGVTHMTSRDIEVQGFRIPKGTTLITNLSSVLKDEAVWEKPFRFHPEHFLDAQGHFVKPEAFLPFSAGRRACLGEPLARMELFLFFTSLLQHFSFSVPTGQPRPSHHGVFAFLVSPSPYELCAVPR
Mitogen-activated protein kinase kinase kinase 11 (Mus musculus, UniProt Q80XI6), sequence (Q80XI6 whole entry): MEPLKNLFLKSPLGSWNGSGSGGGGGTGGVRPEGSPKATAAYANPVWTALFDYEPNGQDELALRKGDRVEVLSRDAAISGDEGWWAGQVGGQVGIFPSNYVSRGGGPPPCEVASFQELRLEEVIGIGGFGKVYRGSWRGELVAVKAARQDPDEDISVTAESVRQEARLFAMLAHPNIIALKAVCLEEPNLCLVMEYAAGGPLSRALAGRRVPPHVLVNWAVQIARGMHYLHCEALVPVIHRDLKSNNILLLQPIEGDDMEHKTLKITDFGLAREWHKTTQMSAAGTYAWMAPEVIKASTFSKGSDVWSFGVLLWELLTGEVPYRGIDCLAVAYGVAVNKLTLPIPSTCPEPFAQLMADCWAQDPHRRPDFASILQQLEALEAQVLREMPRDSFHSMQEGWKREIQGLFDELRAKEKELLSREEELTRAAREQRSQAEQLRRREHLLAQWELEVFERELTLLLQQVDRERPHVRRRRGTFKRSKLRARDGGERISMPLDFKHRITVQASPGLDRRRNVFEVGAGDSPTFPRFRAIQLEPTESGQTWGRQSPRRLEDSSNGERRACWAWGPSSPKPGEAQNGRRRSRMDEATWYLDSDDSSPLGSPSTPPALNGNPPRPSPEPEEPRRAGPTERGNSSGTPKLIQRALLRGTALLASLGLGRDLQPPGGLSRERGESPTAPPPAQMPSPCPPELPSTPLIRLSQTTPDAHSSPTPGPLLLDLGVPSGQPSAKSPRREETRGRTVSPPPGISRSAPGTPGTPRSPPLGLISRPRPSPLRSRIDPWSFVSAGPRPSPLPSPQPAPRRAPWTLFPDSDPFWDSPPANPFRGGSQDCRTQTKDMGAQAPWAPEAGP
T2 sequence (Q5S007 whole entry): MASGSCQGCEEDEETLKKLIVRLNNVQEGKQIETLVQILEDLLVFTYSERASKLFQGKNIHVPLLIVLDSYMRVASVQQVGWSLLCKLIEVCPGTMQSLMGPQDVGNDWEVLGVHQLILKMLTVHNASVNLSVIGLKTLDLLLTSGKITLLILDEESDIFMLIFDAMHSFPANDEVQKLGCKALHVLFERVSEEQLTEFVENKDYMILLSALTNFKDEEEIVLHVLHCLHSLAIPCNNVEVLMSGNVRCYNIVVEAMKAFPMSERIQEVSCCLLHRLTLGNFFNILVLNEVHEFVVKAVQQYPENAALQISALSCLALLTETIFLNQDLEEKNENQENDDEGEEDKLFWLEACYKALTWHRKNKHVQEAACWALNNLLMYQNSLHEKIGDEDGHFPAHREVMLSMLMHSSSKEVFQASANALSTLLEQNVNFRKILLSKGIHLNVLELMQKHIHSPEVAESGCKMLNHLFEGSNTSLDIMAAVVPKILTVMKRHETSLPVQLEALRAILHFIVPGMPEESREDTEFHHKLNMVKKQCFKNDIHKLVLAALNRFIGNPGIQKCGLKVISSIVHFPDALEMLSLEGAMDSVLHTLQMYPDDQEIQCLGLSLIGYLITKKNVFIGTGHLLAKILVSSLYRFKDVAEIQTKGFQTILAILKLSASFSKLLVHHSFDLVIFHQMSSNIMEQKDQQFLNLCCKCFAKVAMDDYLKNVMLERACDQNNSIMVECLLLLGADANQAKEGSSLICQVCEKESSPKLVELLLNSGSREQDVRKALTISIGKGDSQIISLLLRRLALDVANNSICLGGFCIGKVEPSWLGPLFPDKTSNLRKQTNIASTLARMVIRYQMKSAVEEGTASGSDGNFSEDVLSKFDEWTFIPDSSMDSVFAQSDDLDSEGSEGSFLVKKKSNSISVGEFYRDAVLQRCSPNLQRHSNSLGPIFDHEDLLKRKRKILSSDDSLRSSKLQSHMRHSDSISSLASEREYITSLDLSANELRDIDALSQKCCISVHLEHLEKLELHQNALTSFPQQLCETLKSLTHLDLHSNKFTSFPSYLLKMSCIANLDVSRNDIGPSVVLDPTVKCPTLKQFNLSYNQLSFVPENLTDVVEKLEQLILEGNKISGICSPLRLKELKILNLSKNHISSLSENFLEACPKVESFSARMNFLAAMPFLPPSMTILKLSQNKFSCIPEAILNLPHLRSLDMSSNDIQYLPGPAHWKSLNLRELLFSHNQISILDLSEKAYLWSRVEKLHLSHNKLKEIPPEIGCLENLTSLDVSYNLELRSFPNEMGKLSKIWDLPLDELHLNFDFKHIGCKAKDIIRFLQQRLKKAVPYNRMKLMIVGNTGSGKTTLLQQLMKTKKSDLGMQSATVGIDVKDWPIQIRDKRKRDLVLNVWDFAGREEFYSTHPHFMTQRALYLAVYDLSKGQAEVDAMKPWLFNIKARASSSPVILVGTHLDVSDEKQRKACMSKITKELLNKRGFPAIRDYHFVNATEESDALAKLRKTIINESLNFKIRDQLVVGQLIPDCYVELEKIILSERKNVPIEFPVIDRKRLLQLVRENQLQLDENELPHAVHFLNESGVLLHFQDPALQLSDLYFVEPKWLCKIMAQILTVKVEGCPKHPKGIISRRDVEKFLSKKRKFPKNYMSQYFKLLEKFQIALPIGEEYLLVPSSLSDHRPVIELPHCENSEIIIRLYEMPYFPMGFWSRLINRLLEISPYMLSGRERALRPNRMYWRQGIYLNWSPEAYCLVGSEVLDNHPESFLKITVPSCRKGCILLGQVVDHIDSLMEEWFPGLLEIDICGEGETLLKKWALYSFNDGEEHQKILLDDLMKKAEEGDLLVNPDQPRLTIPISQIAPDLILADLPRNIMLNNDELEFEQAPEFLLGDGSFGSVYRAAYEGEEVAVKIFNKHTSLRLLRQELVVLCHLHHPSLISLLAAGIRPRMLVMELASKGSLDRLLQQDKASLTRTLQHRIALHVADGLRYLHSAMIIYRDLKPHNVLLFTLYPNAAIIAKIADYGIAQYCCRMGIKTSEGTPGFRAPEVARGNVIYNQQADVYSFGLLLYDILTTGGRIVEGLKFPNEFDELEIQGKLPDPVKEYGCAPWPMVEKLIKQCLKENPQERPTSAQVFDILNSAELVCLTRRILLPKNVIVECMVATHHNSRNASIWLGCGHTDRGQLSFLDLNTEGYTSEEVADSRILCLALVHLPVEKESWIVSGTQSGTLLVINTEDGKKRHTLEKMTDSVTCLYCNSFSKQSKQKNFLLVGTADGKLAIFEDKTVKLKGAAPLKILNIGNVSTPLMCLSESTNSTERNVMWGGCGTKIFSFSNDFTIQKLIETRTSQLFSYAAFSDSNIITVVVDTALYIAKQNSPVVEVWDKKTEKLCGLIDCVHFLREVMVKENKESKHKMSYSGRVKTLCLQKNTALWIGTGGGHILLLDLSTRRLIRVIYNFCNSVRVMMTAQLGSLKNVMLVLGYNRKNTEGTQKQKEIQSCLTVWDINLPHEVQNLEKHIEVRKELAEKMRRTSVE
Cytochrome P450 3A4, sequence (P08684 whole entry): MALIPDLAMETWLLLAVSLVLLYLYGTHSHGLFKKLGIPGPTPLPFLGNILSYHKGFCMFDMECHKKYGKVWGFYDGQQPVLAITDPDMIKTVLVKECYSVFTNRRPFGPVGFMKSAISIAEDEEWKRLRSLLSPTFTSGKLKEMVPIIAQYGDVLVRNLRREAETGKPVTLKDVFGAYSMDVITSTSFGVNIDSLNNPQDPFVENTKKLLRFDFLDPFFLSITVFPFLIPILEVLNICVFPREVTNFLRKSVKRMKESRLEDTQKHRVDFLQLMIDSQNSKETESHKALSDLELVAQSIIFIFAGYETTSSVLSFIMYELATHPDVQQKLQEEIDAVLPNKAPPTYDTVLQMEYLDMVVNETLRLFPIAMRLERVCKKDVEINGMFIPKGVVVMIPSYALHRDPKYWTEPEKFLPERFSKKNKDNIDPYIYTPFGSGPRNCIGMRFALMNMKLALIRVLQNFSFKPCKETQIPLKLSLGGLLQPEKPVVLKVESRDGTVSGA
Leucine-rich repeat serine/threonine-protein kinase 2 (Homo sapiens), Q5S007 [G2019S], sequence (Q5S007 whole entry G2019S): as the sequence (Q5S007 whole entry) above, with G2019S counted along it

Structure (SMILES): COc1cc(-c2cnc3[nH]cc(-c4ccc(N)nc4)c3c2)cc(OC)c1OC
inhibition [1]: 99% | pIC50 [2]: 6.92 | pIC50 [3]: 8.15 | pIC50 [4]: 8.30 | pIC50 (Cytochrome P450 3A4): < 4.52 | pIC50 (Cytochrome P450 2C9): < 4.52 | pIC50 (Cytochrome P450 2D6): < 4.52

Structure (SMILES): CCSCc1ccc2c(c1)c1c3c(c4c5cc(CSCC)ccc5n5c4c1n2[C@H]1C[C@](O)(C(=O)OC)[C@]5(C)O1)CNC3=O [CEP-1347]
inhibition [5]: inactive | inhibition [6]: inactive | inhibition [7]: Active | inhibition [8]: Active | inhibition [9]: Active | inhibition [10]: Active | inhibition [11]: 98% | inhibition [12]: 87% | inhibition [13]: 94% | inhibition [14]: 84% | inhibition [15]: > 99% | inhibition [16]: > 99% | inhibition [17]: > 99% | inhibition [18]: > 99% | inhibition [19]: 98% | inhibition [20]: 100% | inhibition [21]: > 99% | inhibition [22]: > 99% | pIC50 [23]: > 9.00 | pIC50 [24]: 8.70 | pIC50 [25]: 8.22

inhibition [1]: 98% | pIC50 [2]: 6.37 | pIC50 [3]: 7.72 | pIC50 [4]: 7.34 | pIC50 (Cytochrome P450 3A4): 5.38 | pIC50 (Cytochrome P450 2C9): 4.86 | pIC50 (Cytochrome P450 2D6): 5.43
Structure (SMILES): Nc1ccc(-c2cnc3[nH]cc(-c4ccc5[nH]ccc5c4)c3c2)cn1

Structure (SMILES): Nc1ncc(-c2cnc3[nH]cc(-c4ccc5[nH]ccc5c4)c3c2)cn1
inhibition [1]: 97% | pIC50 [2]: 6.29 | pIC50 [3]: 7.11 | pIC50 (Cytochrome P450 3A4): 4.66 | pIC50 (Cytochrome P450 2C9): < 4.52 | pIC50 (Cytochrome P450 2D6): 4.88

Structure (SMILES): COc1cc(-c2cnc3[nH]cc(-c4cnc(N)nc4)c3c2)cc(OC)c1OC
pIC50 [2]: 6.00 | pIC50 [3]: 8.05 | pIC50 (Cytochrome P450 3A4): < 4.52 | pIC50 (Cytochrome P450 2C9): < 4.52 | pIC50 (Cytochrome P450 2D6): < 4.52

pIC50 [3]: 7.68 | pIC50 [26]: 8.02 | pIC50 [27]: 6.48 | pIC50 [28]: 6.54 | pIC50 [29]: 6.55 | pIC50 (Insulin receptor): 5.89 | pIC50 [30]: 6.14 | pIC50 [31]: 6.14
Structure (SMILES): CN1CCN(Cc2ccc(-c3cnc4[nH]cc(-c5cnc6[nH]ccc6c5)c4c3)cc2)CC1

inhibition [1]: 88% | pIC50 [4]: 5.53
Structure (SMILES): COc1cc(-c2cnc3[nH]c(=O)n(-c4ccc5[nH]ccc5c4)c3n2)cc(OC)c1OC

Structure (SMILES): COc1cc(-c2cnc3[nH]cc(-c4ccc5[nH]ccc5c4)c3c2)cc(OC)c1OC
inhibition [1]: 98% | pIC50 [2]: 5.57 | pIC50 [3]: 8.52 | pIC50 [4]: 7.46 | pIC50 (Cytochrome P450 3A4): < 4.52 | pIC50 (Cytochrome P450 2C9): < 4.52 | pIC50 (Cytochrome P450 2D6): < 4.52
